Assay results: ChEMBL document CHEMBL2424637, “Nucleophilic substitution reactions of 1,4-naphthoquinone and biologic properties of novel S-, S,S-, N-, and N,S-substituted 1,4-naphthoquinone derivatives” (2013)
Converted amounts (≈) assume the structure as drawn. The source made the active and inactive calls. No cut-off for these calls is given here.

Key:
Assay type in all cases: functional
Staphylococcus aureus [1] = test: Antibacterial activity against Staphylococcus aureus 209-P at 0.5% after 24 hrs by agar disk diffusion technique
Escherichia coli [2] = test: Antibacterial activity against Escherichia coli B-906 at 0.1% after 24 hrs by agar disk diffusion technique
Yamadazyma tenuis [3] = test: Antifungal activity against Candida tenuis VKM Y-70 after 24 to 72 hrs by serial dilution technique
Aspergillus niger [4] = test: Antifungal activity against Aspergillus niger F-1119 at 0.1% after 48 to 72 hrs by agar disk diffusion technique
Mycobacterium [5] = test: Antibacterial activity against Mycobacterium luteum B-917 at 0.1% after 24 hrs by agar disk diffusion technique
Aspergillus niger [6] = test: Antifungal activity against Aspergillus niger F-1119 after 24 to 72 hrs by serial dilution technique
Escherichia coli [7] = test: Antibacterial activity against Escherichia coli B-906 at 0.5% after 24 hrs by agar disk diffusion technique
Yamadazyma tenuis [8] = test: Antifungal activity against Candida tenuis VKM Y-70 at 0.5% after 48 to 72 hrs by agar disk diffusion technique
Mycobacterium [9] = test: Antibacterial activity against Mycobacterium luteum B-917 after 24 to 72 hrs by serial dilution technique
Escherichia coli [10] = test: Antibacterial activity against Escherichia coli B-906 after 24 to 72 hrs by serial dilution technique
Staphylococcus aureus [11] = test: Antibacterial activity against Staphylococcus aureus 209-P after 24 to 72 hrs by serial dilution technique
Yamadazyma tenuis [12] = test: Antifungal activity against Candida tenuis VKM Y-70 at 0.1% after 48 to 72 hrs by agar disk diffusion technique
Mycobacterium [13] = test: Antibacterial activity against Mycobacterium luteum B-917 at 0.5% after 24 hrs by agar disk diffusion technique
Aspergillus niger [14] = test: Antifungal activity against Aspergillus niger F-1119 at 0.5% after 48 to 72 hrs by agar disk diffusion technique
Staphylococcus aureus [15] = test: Antibacterial activity against Staphylococcus aureus 209-P at 0.1% after 24 hrs by agar disk diffusion technique

Compound | diameter of the inhibition zone (DIZ) (Staphylococcus aureus [1]) | diameter of the inhibition zone (DIZ) (Escherichia coli [2]) | MIC (Yamadazyma tenuis [3]) | diameter of the inhibition zone (DIZ) (Aspergillus niger [4]) | diameter of the inhibition zone (DIZ) (Mycobacterium [5]) | MIC (Aspergillus niger [6]) | diameter of the inhibition zone (DIZ) (Escherichia coli [7]) | diameter of the inhibition zone (DIZ) (Yamadazyma tenuis [8]) | MIC (Mycobacterium [9]) | MIC (Escherichia coli [10]) | MIC (Staphylococcus aureus [11]) | diameter of the inhibition zone (DIZ) (Yamadazyma tenuis [12]) | diameter of the inhibition zone (DIZ) (Mycobacterium [13]) | diameter of the inhibition zone (DIZ) (Aspergillus niger [14]) | diameter of the inhibition zone (DIZ) (Staphylococcus aureus [15])
O=C1C(Sc2c(Cl)c(Cl)c(Cl)c(Cl)c2Cl)=C(N2CCN(c3ccc(F)cc3)CC2)C(=O)c2ccccc21 | 0 mm | 0 mm | inactive | 0 mm | 0 mm | inactive | 0 mm | 0 mm | 125 µg/mL (≈ 203 µM) | inactive | inactive | 0 mm | 0 mm | 0 mm | 0 mm
COc1ccc(CSC2=C(SCc3ccc(OC)cc3)C(=O)c3ccccc3C2=O)cc1 | 0 mm | 0 mm | 62.5 µg/mL (≈ 135 µM) | 0 mm | 0 mm | 250 µg/mL (≈ 540 µM) | 0 mm | 11.7 mm | inactive | inactive | inactive | 7.4 mm | 7 mm | 7.4 mm | 0 mm
O=C1C(Cl)=C(N2CCN(c3ccc([N+](=O)[O-])cc3)CC2)C(=O)c2ccccc21 | 0 mm | 0 mm | 31.2 µg/mL (≈ 78.4 µM) | 0 mm | 0 mm | 31.2 µg/mL (≈ 78.4 µM) | 0 mm | 15.7 mm | inactive | inactive | inactive | 8.5 mm | 0 mm | 13.7 mm | 0 mm
O=C1C(Sc2cc(Cl)ccc2Cl)=C(Sc2cc(Cl)ccc2Cl)C(=O)c2ccccc21 | 0 mm | 0 mm | 500 µg/mL (≈ 976 µM) | 0 mm | 0 mm | inactive | 0 mm | 7 mm | inactive | inactive | inactive | 0 mm | 0 mm | 0 mm | 0 mm
